# Source: ChEMBL document CHEMBL1201862, “PubChem BioAssay data set” (2004)
# Active and inactive are the calls of the source. Rule as the data show it, for most assays here: actives have a measured EC50 and inactives only a lower limit.
# Tests used:
# [1] = Luminescence Cell-Based Dose Confirmation HTS to Identify Activators of 5'UTR Stem-Loop Driven Alpha-Synuclein mRNA Translation in H4 Neuroglioblastoma Cells. [Related pubchem assays: 1829 (Project Summary), 1814 (Primary HTS)]; type: functional
# [2] = Luminescence Cell-Based Dose Response HTS to Identify Activators of Luciferase Translation or Activity in H4 […] Cells. [Related pubchem assays: 1829 (Project Summary), 1814 (Primary HTS)]; type: functional
# H4 = assay: Luminescence Cell-Based Dose Response HTS to Identify Activators of 5'UTR Stem-Loop Driven Prion Protein mRNA Translation in H4 Neuroglioblastoma Cells. [Related pubchem assays: 1829 (Project Summary), 1814 (Primary HTS)]; type: functional; conditions: Homo sapiens
# [3] = molecular target: T1, Corticotropin-releasing factor receptor 2/Corticotropin-releasing factor-binding protein (Homo sapiens, UniProt P24387+Q13324); assay: Dose Response confirmation of uHTS hits for small molecule antagonists of the CRF-binding protein and CRF-R2 receptor complex.; type: functional; conditions: read-out: IC50_Mean
# T1 sequence (Q13324 whole entry): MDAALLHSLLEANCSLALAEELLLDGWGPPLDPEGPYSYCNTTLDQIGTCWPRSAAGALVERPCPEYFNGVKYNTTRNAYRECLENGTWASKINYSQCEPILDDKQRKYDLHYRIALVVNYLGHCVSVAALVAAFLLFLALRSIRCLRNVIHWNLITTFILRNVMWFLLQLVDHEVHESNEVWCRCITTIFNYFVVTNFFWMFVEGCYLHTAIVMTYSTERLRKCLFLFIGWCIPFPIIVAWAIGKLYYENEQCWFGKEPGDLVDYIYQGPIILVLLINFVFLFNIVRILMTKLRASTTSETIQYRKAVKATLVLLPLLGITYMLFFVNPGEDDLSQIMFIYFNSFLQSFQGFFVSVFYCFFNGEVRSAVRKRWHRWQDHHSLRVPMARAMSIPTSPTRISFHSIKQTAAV
# T1 sequence (P24387 whole entry): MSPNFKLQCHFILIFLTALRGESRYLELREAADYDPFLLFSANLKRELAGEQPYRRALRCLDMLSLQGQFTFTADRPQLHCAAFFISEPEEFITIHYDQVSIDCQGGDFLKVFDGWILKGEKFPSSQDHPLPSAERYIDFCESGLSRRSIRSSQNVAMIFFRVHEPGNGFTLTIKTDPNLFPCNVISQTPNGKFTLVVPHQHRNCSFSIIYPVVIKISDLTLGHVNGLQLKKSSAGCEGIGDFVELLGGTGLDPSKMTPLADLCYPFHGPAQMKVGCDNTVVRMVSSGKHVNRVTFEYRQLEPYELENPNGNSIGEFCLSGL
# [4] = molecular target: T1, Corticotropin-releasing factor receptor 2/Corticotropin-releasing factor-binding protein; assay: activators of CRF receptor 2 with binding protein – uHTS hits, confirmation (AID 602473); type: functional; conditions: read-out: EC50_Mean
# H9c2 = assay: cells; type: functional, cell-based; conditions: Rattus norvegicus, H9c2, Myocardium;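 also: confirmatory concentration-response retest of ultra-high-throughput screening hits for modulation of myocardial damage; cell death induced by hydrogen peroxide oxidative stress; compound pretreatment for 60 min then peroxide exposure for 2 h; potency is for protecting the cells against peroxide damage rather than for killing them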
# [5] = molecular target: Luciferin 4-monooxygenase (Photinus pyralis, UniProt P08659); assay: firefly luciferase enzyme inhibitors, dose response, biochemical, luminescence (AID 1891)
# [6] = Luminescence Cell-Based Dose Confirmation HTS to Identify Inhibitors of Platelet Dense Granule Release. [Related pubchem assays: 1663 (Primary HTS), 1678 (Summary of Project)]; type: functional
# INS1 = assay: beta cell apoptosis inhibitors, cytokine rescue, dose response, luminescence, retest (AID 449756); type: functional, cell-based; conditions: Rattus norvegicus;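 also: cell death triggered by IL-1 beta plus TNF-alpha plus IFN-gamma mixture; protective hits raise ATP signal compared with cytokine alone wells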
# [7] = inhibitors of intracellular T. cruzi replication, confirmation, NIH3T3 host cells, beta-gal luminescence (AID 2044); type: functional, cell-based;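 also: intracellular parasites grown in NIH/3T3 mouse fibroblasts as host cells; luminescent beta-galactosidase reporter signal from transgenic T. cruzi replicating inside host cells; inhibitors lower the luminescence signal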
# [8] = cytotoxicity toward NIH3T3 fibroblasts, dose response, counter-screen, cell-based, ATP luminescence, mouse fibroblasts (AID 2010); type: functional;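 also: cells exposed to compound for about 90 hours before reading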
# [9] = molecular target: T2, RNA-binding protein pos-1 (Caenorhabditis elegans, UniProt G5EF15); assay: inhibitors of POS-1/mex-3 RNA binding, dose response, biochemical, fluorescence polarization (AID 1964);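 also: purified POS-1 fused to maltose binding protein made in E. coli; potency of compounds blocking POS-1 binding to fluorescent RNA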
# T2 sequence (G5EF15 whole entry): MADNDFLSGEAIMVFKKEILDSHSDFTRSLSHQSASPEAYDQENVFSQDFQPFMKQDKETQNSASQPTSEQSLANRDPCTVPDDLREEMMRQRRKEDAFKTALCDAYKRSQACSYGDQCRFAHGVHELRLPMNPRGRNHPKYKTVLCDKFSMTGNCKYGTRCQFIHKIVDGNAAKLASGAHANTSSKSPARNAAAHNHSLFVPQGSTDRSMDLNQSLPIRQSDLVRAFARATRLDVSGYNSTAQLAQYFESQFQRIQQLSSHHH
# Chain of Luciferin 4-monooxygenase (P08659 whole entry): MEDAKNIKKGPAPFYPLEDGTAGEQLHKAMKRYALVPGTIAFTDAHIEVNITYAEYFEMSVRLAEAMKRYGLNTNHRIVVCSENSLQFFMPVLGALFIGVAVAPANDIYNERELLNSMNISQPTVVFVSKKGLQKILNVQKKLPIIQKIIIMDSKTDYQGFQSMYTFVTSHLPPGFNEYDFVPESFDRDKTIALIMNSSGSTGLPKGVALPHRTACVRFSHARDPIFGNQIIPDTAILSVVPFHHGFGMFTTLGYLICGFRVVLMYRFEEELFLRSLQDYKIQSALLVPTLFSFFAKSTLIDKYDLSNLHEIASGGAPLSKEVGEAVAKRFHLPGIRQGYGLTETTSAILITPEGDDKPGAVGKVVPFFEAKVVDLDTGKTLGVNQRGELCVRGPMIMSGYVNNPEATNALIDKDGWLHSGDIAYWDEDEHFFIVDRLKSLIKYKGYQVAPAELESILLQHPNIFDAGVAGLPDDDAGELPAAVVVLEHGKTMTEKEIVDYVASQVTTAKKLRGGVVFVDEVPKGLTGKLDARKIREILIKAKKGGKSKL
smiles,measurement,setting,value
O=C(CSc1nc(-c2ccccc2)cs1)NCCN1C(=O)CSC1=O,EC50,[1],6.7 µM (active)
same,EC50,[2],31.1 µM (active)
same,EC50,H4,17.9 µM (active)
COc1ccc(-c2nn(-c3ccccc3)cc2/C=C(\C#N)S(=O)(=O)c2ccccc2)cc1OC,IC50,[3],> 47.1 µM (inactive)
same,EC50,[4],> 53 µM (inactive)
O=C(NCc1ccco1)C(c1ccccc1)N(C(=O)Cc1cccs1)c1ccccc1F (stereo unspecified),IC50,H9c2,> 79 µM (inactive)
C=CCn1c(SCC(=O)Nc2sc3c(c2C#N)CCC3)nnc1C1COc2ccccc2O1 (stereo unspecified),EC50,[5],39.7 µM (active)
same,EC50,[6],> 112 µM (not active)
O=C(CCNC(=O)C1CCN(S(=O)(=O)c2ccccc2)CC1)NCc1ccc(Cl)c(Cl)c1,EC50,[5],> 112 µM (not active)
same,EC50,[6],> 112 µM (not active)
CCOc1ccc(C(=O)Nc2nnc(S(=O)(=O)N(C)Cc3ccco3)s2)cc1,EC50,[1],15.1 µM (active)
same,EC50,[2],0.162 µM (inconclusive)
same,EC50,H4,6.04 µM (active)
Cc1ccc(Cn2c(SCC(=O)NCC3CCCO3)nc3ccsc3c2=O)cc1 (stereo unspecified),IC50,[3],> 47.1 µM (inactive)
same,EC50,[4],> 53 µM (inactive)
COc1ccc([N+]2=C3CCc4ccccc4N3CC2(C)O)cc1 (stereo unspecified),EC50,[1],> 120 µM (not active)
same,EC50,[2],> 120 µM (not active)
same,EC50,H4,> 120 µM (not active)
CC(C)(C)c1ccc(C(=O)NCC(=O)OCC(=O)Nc2nc(-c3ccc(F)cc3)cs2)cc1,EC50,[1],19.9 µM (active)
same,EC50,[2],> 120 µM (not active)
same,EC50,H4,13.5 µM (active)
O=C(Nc1ncnc2c1C(c1ccccc1)c1c(ccc3ccccc13)O2)c1ccccc1 (stereo unspecified),AC50,INS1,20.6 µM (active)
NC(=O)COC(=O)c1cccc(S(=O)(=O)N2CCCCC2)c1,IC50,[3],> 47.1 µM (inactive)
same,EC50,[4],> 53 µM (inactive)
CSC1=NC(C)(C)CC2(C)Nc3ccccc3N12 (stereo unspecified),EC50,[1],> 120 µM (not active)
same,EC50,[2],> 120 µM (not active)
same,EC50,H4,> 120 µM (not active)
COc1ccc(-c2cc(C(=O)Nc3ccccc3N3CCOCC3)c3ccccc3n2)cc1OC,IC50,H9c2,> 79 µM (inactive)
Cc1ccc(/N=C2\C=C(O)C(=O)c3ccccc32)c(C)c1,AC50,INS1,2.06 µM (active)
CC(C)(C)n1ncc2c(=O)n(CC(=O)c3ccc(Cl)cc3)cnc21,EC50,[1],0.168 µM (active)
same,EC50,[2],0.115 µM (active)
CCC[N+]1(CC#CCC(c2ccccc2)c2ccccc2)CCCCC1,EC50,[7],0.767 µM (active)
same,EC50,[8],> 60 µM (not active)
same,AC50,INS1,1.67 µM (active)
CCN(c1ccc(NC(=O)COC(=O)c2ccc([N+](=O)[O-])o2)cc1)C(C)C,IC50,H9c2,> 79 µM (inactive)
Cc1cccc(C(C)C)c1NC(=O)C(C)OC(=O)Cc1nnc(O)c2ccccc12 (stereo unspecified),IC50,H9c2,21.1 µM (active)
O=C(Nc1ccc(C(=O)N2CCCC2)cc1)c1ccccc1F,IC50,[3],> 47.1 µM (inactive)
same,EC50,[4],> 53 µM (inactive)
COc1ccc(-c2[nH]ncc2/C=N/NC(=O)c2ccc(Br)cc2)c(OC)c1,EC50,[5],> 112 µM (not active)
same,EC50,[6],16.1 µM (active)
Cc1ccccc1N(C(=O)c1snc(C(N)=O)c1N)C(C(=O)NCc1ccccc1)c1ccc(O)cc1 (stereo unspecified),IC50,H9c2,> 79 µM (inactive)
COc1ccc(OC)c(NC(=O)c2ccccc2NS(=O)(=O)c2cccc3cccnc23)c1,IC50,[3],< 0.368 µM (active)
same,EC50,[4],> 53 µM (inactive)
CCOC(=O)COc1cccc2c(=O)n(CC(=O)NCCc3ccccc3)ccc12,EC50,[1],> 120 µM (not active)
same,EC50,[2],> 120 µM (not active)
same,EC50,H4,19.5 µM (active)
O=C(O)C1C2C=CC(C2)C1C(=O)NCc1ccccn1 (stereo unspecified),EC50,[5],> 112 µM (not active)
same,EC50,[6],> 112 µM (not active)
CC(c1nccs1)N(C)C(=O)c1cn(Cc2cccc3ccccc23)nn1 (stereo unspecified),EC50,[1],13.2 µM (active)
same,EC50,[2],18 µM (active)
same,EC50,H4,47.3 µM (active)
COCCN1CCN(C(=O)c2cc(COc3cc(C)ccc3C)on2)CC1,IC50,[3],> 47.1 µM (inactive)
same,EC50,[4],> 53 µM (inactive)
O=C(O)c1ccc(/C=N/N2CCN(c3ccccc3)CC2)cc1,EC50,[1],0.687 µM (active)
same,EC50,[2],19.6 µM (active)
same,EC50,H4,> 120 µM (not active)
N#Cc1ccc(/C=N/NC(=O)CCc2ccc(S(=O)(=O)N3CCOCC3)cc2)cc1,EC50,[5],> 112 µM (not active)
same,EC50,[6],> 112 µM (not active)
Cc1ccsc1/C=N\NC(=O)CCc1c(C)n[nH]c1C,IC50,[3],> 47.1 µM (inactive)
same,EC50,[4],> 53 µM (inactive)
Cc1cc(C)cc(N2C(=O)NC(=O)/C(=C\c3cccn3-c3ccc(Cl)cc3)C2=O)c1,EC50,[9],84.5 µM (active)
CC(C)CC(C(=O)NC1CCCCC1)N(Cc1cccs1)C(=O)c1snc(C(N)=O)c1N (stereo unspecified),IC50,H9c2,> 79 µM (inactive)
CCOc1cccc(-c2nn3c(-c4ccco4)nnc3s2)c1,IC50,H9c2,> 79 µM (inactive)
N#Cc1c(-c2ccco2)cc(-c2ccccn2)nc1N,IC50,H9c2,14.3 µM (active)
CCC1CCCCN1CCCNC(=O)c1cn(C)c2ccc(S(=O)(=O)N(C)C3CCCCC3)cc2c1=O (stereo unspecified),IC50,[3],> 47.1 µM (inactive)
same,EC50,[4],> 53 µM (inactive)
CCC(C)(C)n1nnnc1C(c1cccc(C#N)c1)N1CCN(c2cccc(C)c2C)CC1 (stereo unspecified),IC50,[3],> 47.1 µM (inactive)
same,EC50,[4],> 53 µM (inactive)
Cc1nc2sccn2c(=O)c1S(=O)(=O)NC(C)c1ccccc1 (stereo unspecified),EC50,[5],> 112 µM (not active)
same,EC50,[6],> 112 µM (not active)
Cn1c(=O)oc2cc(S(=O)(=O)NC3CCN(Cc4ccccc4)CC3)ccc21,EC50,[5],> 112 µM (not active)
same,EC50,[6],> 112 µM (not active)
CC(C)N1CC(C(=O)Nc2ccc(Br)c(Cl)c2)CC1=O (stereo unspecified),IC50,[3],> 47.1 µM (inactive)
same,EC50,[4],> 53 µM (inactive)
Cc1cc(C)n(Cc2cccc(F)c2)c(=O)c1C#N,EC50,[5],> 112 µM (not active)
same,EC50,[6],> 112 µM (not active)
Cn1c(=O)n(CCc2ccccc2)c(=O)c2c1nc1n2CCN1Cc1ccco1,IC50,H9c2,10.5 µM (active)
CN(C)c1nc(NCc2ccccc2)nc(SCC(=O)Nc2ccccc2Cl)n1,IC50,[3],> 47.1 µM (inactive)
same,EC50,[4],> 53 µM (inactive)
COc1ccccc1C(=O)NC(=O)COC(=O)Cn1[nH]c(=O)c2ccccc2c1=O,IC50,H9c2,> 79 µM (inactive)
COc1cccc2oc3cc(C#Cc4ccccn4)ccc3c(=O)c12,EC50,[5],23.1 µM (active)
same,EC50,[6],> 112 µM (not active)
COc1ccc(CCNC(=O)c2cc3c(=O)n4cccc(C)c4nc3n(Cc3ccco3)c2=N)cc1OC,AC50,INS1,8.24 µM (active)
COc1ccc(C2CC(c3ccccc3OC(=O)/C=C/c3ccccc3)=NN2C(C)=O)cc1 (stereo unspecified),EC50,[1],14 µM (active)
same,EC50,[2],18.5 µM (active)
same,EC50,H4,36.4 µM (active)
